Measurements published in US20090325208A1 (priority 2006, published 2009).

Tests used:
[1] = target: T1, 3-hydroxy-3-methylglutaryl-CoA synthase (HMGS) (Homo sapiens, UniProt Q01581); settings: cited from earlier work
T1 sequence (Q01581 1-520): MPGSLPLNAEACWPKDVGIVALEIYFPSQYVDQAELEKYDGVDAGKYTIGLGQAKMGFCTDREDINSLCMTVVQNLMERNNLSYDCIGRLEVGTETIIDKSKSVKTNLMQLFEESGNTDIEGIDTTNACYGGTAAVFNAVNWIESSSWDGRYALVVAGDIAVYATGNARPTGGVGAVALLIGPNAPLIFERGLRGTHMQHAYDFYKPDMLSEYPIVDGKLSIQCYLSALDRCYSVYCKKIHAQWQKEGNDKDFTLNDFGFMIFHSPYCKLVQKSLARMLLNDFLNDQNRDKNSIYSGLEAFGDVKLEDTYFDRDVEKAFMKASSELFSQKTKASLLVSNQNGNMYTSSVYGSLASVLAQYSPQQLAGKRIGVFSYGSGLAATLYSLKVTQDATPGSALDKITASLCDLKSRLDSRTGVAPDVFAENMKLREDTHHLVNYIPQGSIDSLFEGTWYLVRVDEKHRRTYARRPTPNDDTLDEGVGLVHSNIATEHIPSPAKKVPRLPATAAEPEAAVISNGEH

purified 20S proteasome = purified 20S proteasome (Homo sapiens, UniProt P28074); settings: read-out: IC50 against purified 20S proteasome; cited from earlier work
animal tumor models = settings: cited from earlier work
[2] = tested on: multiple myeloma cells that have become refractory to bortezomib therapy; settings: cited from earlier work
[3] = tested on: colon, pancreatic, and lung cancers; settings: cited from earlier work
[4] = tested on: assembled 20S proteasome from recombinant subunits containing the SalJ β-subunit; assay: 20S Proteasome Activity Assay (Chemicon), cleavage of LLVY-AMC; assay type: biochemical, S. tropica; settings: assembled recombinant 20S proteasome with SalJ β-subunit (Ala→Val at residue 49); FIG. 19
From the text: (§1) Inhibition of the 20S proteasome will also be measured 20S for all new salinosporamides. The CHEMICON Proteasome Activity Assay Kit by Chemicon International provides a system that is designed to detect the chymotrypsin-like activity of the yeast 20S proteasome through the release of the fluorophore AMC (7-amino-4-methylcoumarin) from the specific substrate Suc-LLVY-AMC after cleavage. AMC can be detected using a fluorometer with a 380 nm excitation and a 460 nm emission filter. For inhibitor screening, the test sample is added to the assay plate and fluorescence read, looking for a reduction in proteasome activity.
(§2) The ubiquitin-proteasome pathway involves the 26S proteasome, which is formed by the barrel-shaped 20S proteasome (about 700 kDa) and two 19S (about 700 kDa) regulatory complexes on each end of the 20S proteasome. […] Cleavage of the free flourophore, 7-Amino-4-methylcoumarin (AMC) from LLVY can be detected and quantified using a 380/460 nm filter set in a flourmeter. […]
(§3) The present invention describes the biosynthesis of SalJ (FIG. 16). […] Yet, the assembled-recombinant 20S proteasome with the SalJ β-subunit (far right two bars) confers resistance to at least SalA as there was no substantial measurable difference in the level of fluorescence of the free AMC (FIG. 19) in the presence or absence of SalA. […]

[5] = tested on: S. tropica 20S proteasome; assay: as above; assay type: biochemical; settings: preliminary experiments, FIG. 19
From the text: as §1, §2, §3

yeast 20S proteasome = target: T2, yeast 20S proteasome (Saccharomyces cerevisiae, UniProt P30656); assay: as above; assay type: biochemical; settings: preliminary experiments, FIG. 19
T2 construct: minus the N-terminal propeptide that is cleaved off autocatalytically during assembly; purchased Chemicon International
From the text: as §1, §2, §3

## CC(=C\C(=O)O)/C=C(\C)C[C@H](C)CCCC[C@H]1OC(=O)[C@@H]1CO [F-244]
[1]
  IC50: 35 nM

## CC(C)[C@H](O)[C@@]12NC(=O)[C@H](C)[C@@H]1OC2=O [omuralide, clasto-lactacystin-β-lactone, reference compound]
Purified 20S proteasome
  IC50: 49 nM

## C[C@@]12OC(=O)[C@]1([C@@H](O)[C@@H]1C=CCCC1)NC(=O)[C@@H]2CCCl [salinosporamide A]
Animal tumor models
  oral activity: orally active
  survival: prolongs survival
  tolerability: well tolerated
[2]
  induction of apoptosis: induces apoptosis
[3]
  efficacy in animal models: efficacious
[4]
  inhibition of 20S proteasome (fluorescence of free AMC): not inhibited
[5]
  inhibition of 20S proteasome (fluorescence of free AMC): inhibited
Yeast 20S proteasome
  inhibition of 20S proteasome (fluorescence of free AMC): inhibited
